Test results taken from article PMC11651915, “Small molecule protein assembly modulators with pan-cancer therapeutic efficacy” (Open Biology, 2024).

Key:
[1] = tested on: MHH-PREB-1; assay: Eurofins OncoPanel (CellTiter-Glo); settings: Homo sapiens, MHH-PREB-1, 72 h
[2] = tested on: SK-MEL-2; assay: cells; settings: Homo sapiens, SK-MEL-2, 48 h
[3] = tested on: SNB-19; assay: cells; settings: Homo sapiens, SNB-19, 48 h
[4] = tested on: SW1353; assay: Eurofins OncoPanel (CellTiter-Glo); type: cell-based; settings: Homo sapiens, 72 h, 3 days
[5] = tested on: SK-MEL-28; assay: cells; settings: Homo sapiens, SK-MEL-28, 48 h
[6] = tested on: SJSA1-OSA; assay: Eurofins OncoPanel (CellTiter-Glo); type: cell-based; settings: Homo sapiens, 72 h, 3 days
[7] = tested on: HCT-15; assay: cells; settings: Homo sapiens, HCT-15, 48 h
[8] = tested on: HT-29 colorectal cancer xenograft; assay: HT-29 xenograft study; type: in vivo, mouse; settings: 17 days, PAV-951 3 mg kg^−1 IV, Irinotecan 60 mg kg^−1 IP
Method: In the second animal efficacy study, human HT-29 colorectal adenocarcinoma cells were grafted subcutaneously onto mice. After tumour establishment, the animals received treatment with vehicle, 3 mg kg^−1 PAV-951 or 60 mg kg^−1 of a positive control drug Irinotecan. […]. Survival was not assessed as part of the study.
HT-29 cells growing in HBSS medium were suspended in Matrigel. 0.1 ml of the cell suspension containing 5 × 10^6 cells were injected subcutaneously into the left flank region of male, 6–8 week old SCID mice. After tumour establishment, animals were divided randomly into groups of six and treated daily by IV with vehicle daily for 17 days, 3 mg kg^−1 PAV-951 three times per week for 17 days, or treated by IP with 60 mg kg^−1 Irinotecan every 4 days for 14 days. Tumour volume was calculated using the formula: (L × W2)/2 where L is the largest diameter and W is the smallest diameter of the tumour. Statistical analysis was performed using GraphPad Prism (Ver. 5.03). Statistical analysis of tumour growth inhibition between the Control and Treated groups was performed by using ne-way ANOVA followed by Dunnett’s test.

[9] = tested on: A498; assay: cells; settings: Homo sapiens, A498, 48 h
[10] = tested on: SNB-75; assay: cells; settings: Homo sapiens, SNB-75, 48 h
[11] = tested on: Hs 294T; assay: Eurofins OncoPanel (CellTiter-Glo); type: cell-based; settings: Homo sapiens, 72 h, 3 days

CC(C)CCNc1ncnc2cc(N3CCN(c4ccc5c(NCCC(C)C)ncnc5c4)CC3)ccc12 [PAV-951]
IC50 [1]: 0.4 µM
GI50 [2]: 1.65 µM
CC50 ([2]; read-out: LC50): 5.91 µM
GI50 [3]: 1.17 µM
CC50 ([3]; read-out: LC50): 5.18 µM
IC50 [4]: 2.21 µM
GI50 [5]: 1.33 µM
CC50 ([5]; read-out: LC50): 5.24 µM
IC50 [6]: 0.724 µM
GI50 [7]: 0.173 µM
CC50 ([7]; read-out: LC50): 0.815 µM
tumour growth inhibition (TGI) [8]: 52%
GI50 [9]: 1.86 µM
CC50 ([9]; read-out: LC50): 5.92 µM
GI50 [10]: 0.304 µM
CC50 ([10]; read-out: LC50): 4.14 µM
IC50 [11]: 1.1 µM
